Like-named read-outs stand apart in the source and are kept apart here.
How the values were obtained:
TNKS1 = target: T1, TNKS1 (Homo sapiens, UniProt O95271); assay: Activity assay measuring NAD+ consumption, TNKS1; format: biochemical; conditions: Table 4
T1 sequence (O95271 1-1327): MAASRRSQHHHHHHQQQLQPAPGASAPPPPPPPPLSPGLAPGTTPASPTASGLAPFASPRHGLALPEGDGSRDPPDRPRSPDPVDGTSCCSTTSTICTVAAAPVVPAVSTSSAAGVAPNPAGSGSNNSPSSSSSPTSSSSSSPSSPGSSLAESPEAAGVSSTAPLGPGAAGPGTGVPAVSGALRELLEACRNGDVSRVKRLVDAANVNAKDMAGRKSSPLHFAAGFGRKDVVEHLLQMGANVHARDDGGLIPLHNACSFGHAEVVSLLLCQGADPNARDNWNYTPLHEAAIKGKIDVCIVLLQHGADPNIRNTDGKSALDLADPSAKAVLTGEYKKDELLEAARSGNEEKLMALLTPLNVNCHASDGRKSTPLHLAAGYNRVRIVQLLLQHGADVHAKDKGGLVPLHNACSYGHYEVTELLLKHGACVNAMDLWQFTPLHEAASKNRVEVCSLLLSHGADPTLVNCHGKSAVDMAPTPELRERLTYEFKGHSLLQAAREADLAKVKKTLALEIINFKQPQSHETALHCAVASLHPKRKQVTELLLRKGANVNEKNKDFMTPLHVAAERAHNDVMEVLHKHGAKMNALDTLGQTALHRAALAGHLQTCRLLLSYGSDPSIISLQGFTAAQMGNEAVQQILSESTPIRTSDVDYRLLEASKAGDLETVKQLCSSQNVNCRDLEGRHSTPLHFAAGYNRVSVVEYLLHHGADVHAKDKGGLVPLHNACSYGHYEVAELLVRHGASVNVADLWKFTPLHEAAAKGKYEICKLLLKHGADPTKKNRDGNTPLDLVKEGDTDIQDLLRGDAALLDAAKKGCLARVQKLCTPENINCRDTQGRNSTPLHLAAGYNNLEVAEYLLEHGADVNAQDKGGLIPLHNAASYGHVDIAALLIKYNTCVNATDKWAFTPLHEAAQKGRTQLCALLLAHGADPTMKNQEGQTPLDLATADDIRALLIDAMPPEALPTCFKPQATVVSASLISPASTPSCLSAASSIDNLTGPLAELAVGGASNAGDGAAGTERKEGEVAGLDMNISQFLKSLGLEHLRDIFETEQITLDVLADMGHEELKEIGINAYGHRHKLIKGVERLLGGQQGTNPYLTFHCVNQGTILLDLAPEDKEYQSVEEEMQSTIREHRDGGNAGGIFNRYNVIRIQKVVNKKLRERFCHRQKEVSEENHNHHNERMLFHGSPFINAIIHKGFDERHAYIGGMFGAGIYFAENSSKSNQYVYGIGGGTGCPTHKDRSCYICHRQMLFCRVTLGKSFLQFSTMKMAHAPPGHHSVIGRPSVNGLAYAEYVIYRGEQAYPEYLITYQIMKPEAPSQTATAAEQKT
Method: All starting materials, reagents, and solvents were purchased from common commercial suppliers and were used as such without further purification. […] Organic solutions were dried over anhydrous Na2SO4 and concentrated with rotary evaporator at low pressure. All the reactions were routinely checked by thin-layer chromatography (TLC) on silica gel 60F254 (Merck) and visualized by using UV and iodine. Flash chromatography separations were carried out on Merck silica gel 60 (mesh 230-400) or by using automated Buchi Reveleris X2-UV with column FP Ecoflex Si 12 g. Yields were of purified products and were not optimized. ^1HNMR spectra were recorded at 400 MHz (Bruker Avance DRX-400), while ^13CNMR spectra were recorded at 101 MHz (Bruker Avance DRX-400). Chemical shifts are given in ppm (δ) relative to TMS. […] Mating constant (J) are reported in Hz. The purity of the tested compounds was evaluated by HPLC analysis using Jasco LC-4000 instrument equipped with a UV-Visible Diode Array Jasco-MD4015 (Jasco Corporation, Tokyo, Japan), and XTerra MS C18 column, 5 μm×4.6 mm×150 mm (Waters Corporation, Massachusetts, USA). Chromatograms were analyzed by ChromNAV2.0 Chromatography Data System software. […] The peak retention time (ret. time) is given in minutes. […] 1-Isobutoxy-4-methoxy-2-nitrobenzene (113). Isobutyl alcohol (0.6 mL, 6.43 mmol) was added, under nitrogen atmosphere at 0° C., to a suspension of NaH (0.26 g, 6.43 mmol) in dry DMF. After 15 minutes, 1-fluoro-4-methoxy-2-nitrobenzene 112 (1 g, 5.84 mmol) was also added and the reaction mixture was stirred at 80° C. for 4 h. […] (2-Isobutoxy-5-methoxyphenyl)amine (114). Zn (1.57 g, 24 mmol) and NH4C1 (2.45 g, 40 mmol) were added to a solution of 113 (0.46 g, 2 mmol) in acetone/H2O (50 mL, ratio 5:1). The reaction mixture was stirred at 60° C. for 3 h and, then, it was filtered over celite. […] N-(2,5-diethoxyphenyl)thiourea (55). […] N-(2-isobutoxy-5-methoxyphenyl)thiourea (115). […] A solution of Br2 (0.2 mL, 3.3 mmol) in CHCl3 (5 mL) was slowly added to a suspension of 45 (0.6 g, 3.3 mmol) in CHCl3 (13 mL), at 0° C. […]

PARP2 = target: T2, PARP2 (Homo sapiens, UniProt Q9UGN5); assay: biochemical; format: biochemical
T2 construct: made in house
Method: All starting materials, reagents, and solvents were purchased from common commercial suppliers and were used as such without further purification. […] Organic solutions were dried over anhydrous Na2SO4 and concentrated with rotary evaporator at low pressure. All the reactions were routinely checked by thin-layer chromatography (TLC) on silica gel 60F254 (Merck) and visualized by using UV and iodine. Flash chromatography separations were carried out on Merck silica gel 60 (mesh 230-400) or by using automated Buchi Reveleris X2-UV with column FP Ecoflex Si 12 g. Yields were of purified products and were not optimized. ^1HNMR spectra were recorded at 400 MHz (Bruker Avance DRX-400), while ^13CNMR spectra were recorded at 101 MHz (Bruker Avance DRX-400). Chemical shifts are given in ppm (δ) relative to TMS. […] Mating constant (J) are reported in Hz. The purity of the tested compounds was evaluated by HPLC analysis using Jasco LC-4000 instrument equipped with a UV-Visible Diode Array Jasco-MD4015 (Jasco Corporation, Tokyo, Japan), and XTerra MS C18 column, 5 μm×4.6 mm×150 mm (Waters Corporation, Massachusetts, USA). Chromatograms were analyzed by ChromNAV2.0 Chromatography Data System software. […] The peak retention time (ret. time) is given in minutes. […] 1-Isobutoxy-4-methoxy-2-nitrobenzene (113). Isobutyl alcohol (0.6 mL, 6.43 mmol) was added, under nitrogen atmosphere at 0° C., to a suspension of NaH (0.26 g, 6.43 mmol) in dry DMF. After 15 minutes, 1-fluoro-4-methoxy-2-nitrobenzene 112 (1 g, 5.84 mmol) was also added and the reaction mixture was stirred at 80° C. for 4 h. […] (2-Isobutoxy-5-methoxyphenyl)amine (114). Zn (1.57 g, 24 mmol) and NH4C1 (2.45 g, 40 mmol) were added to a solution of 113 (0.46 g, 2 mmol) in acetone/H2O (50 mL, ratio 5:1). The reaction mixture was stirred at 60° C. for 3 h and, then, it was filtered over celite. […] N-(2,5-diethoxyphenyl)thiourea (55). […] N-(2-isobutoxy-5-methoxyphenyl)thiourea (115). […] A solution of Br2 (0.2 mL, 3.3 mmol) in CHCl3 (5 mL) was slowly added to a suspension of 45 (0.6 g, 3.3 mmol) in CHCl3 (13 mL), at 0° C. The reaction mixture was stirred at r.t. for 4 h and, then, a 10% solution of Na2SO3 in water was added to the mixture. […] 4,7-Diethoxy-1,3-benzothiazol-2-amine (66). […] 4-Isobutoxy-7-methoxy-1,3-benzothiazol-2-amine (116). […] Hydrazine hydrate (0.23 mL, 4.77 mmol) and CH3COOH (0.12 mL, 2.1 mmol) were added to a suspension of 56 (0.29 g, 1.59 mmol) in ethylene glycol (8 mL), and the reaction mixture was stirred for 24 h at 125° C. […] 6-Ethyl-2-hydrazino-1,3-benzothiazole (69). […] 6-Ispropyl-2-hydrazino-1,3-benzothiazole (70). […] 2-Hydrazino-4,7-dimethoxy-1,3-benzothiazole (73). […] 2-Hydrazino-5,7-dimethoxy-1,3-benzothiazole (75). […] 2-Hydrazino-4,7-Diethoxy-1,3-benzothiazole (77). […] 2-Hydrazino-5-methyl[1,3]thiazolo[5,4-b]pyridine (100). […] A solution of 67 (0.13 g, 0.65 mmol) in formic acid (5 mL) was refluxed for 10 h. The reaction mixture was then poured into ice/water and the pH was neutralized using a saturated solution of NaHCO3.

T2 sequence (Q9UGN5 whole entry): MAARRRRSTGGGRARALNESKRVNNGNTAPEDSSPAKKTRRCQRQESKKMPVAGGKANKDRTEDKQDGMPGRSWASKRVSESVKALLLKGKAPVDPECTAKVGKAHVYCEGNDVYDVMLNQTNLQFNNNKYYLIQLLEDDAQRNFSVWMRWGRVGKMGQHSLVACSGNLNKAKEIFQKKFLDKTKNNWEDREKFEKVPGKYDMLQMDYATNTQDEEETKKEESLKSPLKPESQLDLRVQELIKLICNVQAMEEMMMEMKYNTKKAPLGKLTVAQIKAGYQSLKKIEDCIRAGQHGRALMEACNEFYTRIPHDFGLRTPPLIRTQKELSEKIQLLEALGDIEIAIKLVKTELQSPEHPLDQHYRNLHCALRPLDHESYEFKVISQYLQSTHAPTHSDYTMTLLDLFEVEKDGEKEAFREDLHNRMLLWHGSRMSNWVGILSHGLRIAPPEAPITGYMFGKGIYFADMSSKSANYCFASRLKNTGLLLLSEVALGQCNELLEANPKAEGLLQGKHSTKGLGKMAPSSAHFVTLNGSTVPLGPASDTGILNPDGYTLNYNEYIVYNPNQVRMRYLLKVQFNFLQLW

SMILES | IC50 (TNKS1) [nM] | IC50 (PARP2; NAD+ consumption assay, > less than 50% inhibition at highest concentration, >> no inhibition) [nM] | IC50 (PARP2; NAD+ consumption assay) [nM] | IC50 (PARP2) [nM] | PARP2 pIC50 ± SEM (PARP2)
COc1ccc(OC)c2c1sc1nnc(N)n12 [Compound 28, 5,8-Dimethoxy[1,2,4]triazolo[3,4-b][1,3]benzothiazol-3-amine] | 5400 | 10000 | – | – | –
Nc1nnc2sc3cc(O)ccc3n12 [Compound 109, 3-Amino[1,2,4]triazolo[3,4-b][1,3]benzothiazol-7-ol] | – | – | 5 to 10 | – | –
Cc1ccc2c(c1)sc1nnc(N)n12 [Compound 22, 7-Methyl[1,2,4]triazolo[3,4-b][1,3]benzothiazol-3-amine] | 2100 | – | – | – | –
Oc1ccc2c(c1)sc1nncn12 [Compound 10] | 1600 | – | – | 44 | (7.44 ± 0.12)

Source: US20250177359A1, “COMPOUNDS FOR USE IN THE TREATMENT OF CANCER AND INFLAMMATORY CONDITIONS” (priority 2022, published 2025)
